Laboratory results taken from patent US10253002B2, “Compounds and methods of treating infections” (Neoculi Pty Ltd., priority 2013, dated 2019).

How the values were obtained:
S. pneumoniae isolates [1] = test: Micro-broth dilution MIC, Example 5; assay type: cell-based, Streptococcus pneumoniae
Experimental: For all in vitro assays, fresh pneumococcal isolates were grown overnight (O/N) on horse blood agar (HBA) plates (39 g/L Columbia blood agar base [Oxoid] 5% [v/v] defribinated horse blood [Oxoid] at 37° C. with 5% supplemented CO2). Mueller-Hinton blood agar with 5% defibrinated sheep blood (MHSBA Roseworthy Media and Blood Service) was used for disk diffusion analysis as directed by Clinical Laboratory Standards Institute (CLSI) standards. Pneumococci were routinely grown in broth consisting of 4% lysed horse blood (LHB) with Cation Adjusted Mueller Hinton Broth (CAHMB, [Difco]) at 37° C. with 5% supplemented CO2. […] Isolates were stored in HSB at −80° C.
(§1) [Micro-broth dilutions and 96 well trays are prepared by the following method: 90 μL of 4% LHB:CAMHB is aliquotted into all wells using a multichannel pipette. 90 μL of working antimicrobial stocks were no serial diluted down the tray by a 1:2 dilution. Negative broth controls and dilution control were taken into account when planning the set up of a 96 well tray.] 10 μL of bacterial suspension was then added to the appropriate wells in the 96 well tray. Appropriate positive (no antimicrobial), negative (no antimicrobial or bacteria) and negative dilution (a serial dilution control of antimicrobial and broth) controls were included in each assay. […] The MBC was determined by a 99.95% inhibition of S. pneumoniae, taking into account the dilution factor. MICs and MBCs were determined in quadruplicate and the mode was taken as the representative value. The MIC50, MIC90 and MIC range and MBC50, MBC90 and MBC range were determined according to CLSI standards. The MIC50 and MIC90, or MBC50 and MBC90, are defined by the lowest concentrations which, when all the MICs and MBCs of the isolates are arranged from lowest to highest, inhibited the 50th and 90th percentile of the total amount of isolates, respectively.

S. pneumoniae isolates [2] = test: MBC, Example 5; assay type: cell-based, Streptococcus pneumoniae
Experimental: as §1

S. pneumoniae strain D39 = test: MBC time kill studies (relative MBC at time points); assay type: cell-based, Streptococcus pneumoniae
From the text: MBC kill kinetics assays involved the preparation of three 96 well microtitre trays.

[3] = Visual analysis of solubility in diluents and media, Example 5; assay type: physicochemical
MRSA = test: Broth microdilution MIC, Example 7 (NCL812 and analogues); assay type: cell-based, Staphylococcus aureus
Summary of the method: (§2)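 MICs in μg/ml were read as growth inhibition by eye, checked at 600 nm absorbance against drug-free wells, following CLSI broth microdilution. Strains: two MRSA, two VRE; duplicates, repeated once more when results diverged beyond one dilution step.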

VRE = test: as above; assay type: cell-based, Enterococcus spp.
Summary of the method: as §2

Escherichia coli = test: as above; assay type: cell-based; conditions: 24 hours; 1st and 2nd replicate rows
Pseudomonas aeruginosa = test: as above; assay type: cell-based; conditions: 24 hours; 1st and 2nd replicate rows
[4] = Bioassay ranking of the analogues tested; conditions: M + R (MRSA and VRE combined)
[5] = test system: lipid synthesis in S. aureus ATCC 29213; test: Macromolecular synthesis assay: lipid synthesis ([3H] glycerol); assay type: cell-based, Staphylococcus aureus
Experimental: Cells were grown at 35° C. overnight on Trypticase Soy agar. A colony from the plate was used to inoculate 10 ml of Mueller Hinton broth II (MHBII), and the culture was grown to early exponential growth phase (OD600==0.2 to 0.3) while incubating in a shaker at 35° C. and 200 rpm.
Bacterial cells were grown to early exponential growth phase in MHBII broth and added to 1.5 mL eppendorf tubes (in triplicate) containing various concentrations of test compound or control antibiotics as described above. Following a 5 min incubation at room temperature, [^3H] glycerol was added at 0.5 μCi per reaction.
Reactions were allowed to proceed at room temperature for 15 min and then stopped through the addition of 375 μL chloroform/methanol (1:2) followed by vortexing for 20 seconds after each addition. Chloroform (125 μL) was then added to each reaction, vortexed, followed by the addition of 125 μL dH2O and vortexing. Reactions were centrifuged at 13,000 rpm for 10 min, and then 150 μL of the organic phase was transferred to a scintillation vial and allowed to dry in a fume hood for at least 1 hr. Samples were then counted via liquid scintillation counting.

[6] = test system: ATP release from S. aureus ATCC 29213; test: ATP release assay (CellTiter-Glo); assay type: cell-based, Staphylococcus aureus; conditions: positive control; 8 fold the MIC (256 μg/mL); 30 min exposure
Experimental: The CellTiter-Glo Luminescent Cell Viability Assay (Promega) was utilized to measure the leakage of ATP from bacteria. […] The negative control received 2% DMSO, which represented the final DMSO concentration in each assay. After a 30 min exposure to drug, cells were sedimented by centrifugation and the supernatant was analyzed for the presence of ATP. Results were expressed as ATP concentration released to the medium (μM).

[7] = isolate WCH158, Table 22, CAMHB diluent for NCL062

C/C(=N\NC(=N)N/N=C(\C)c1ccc(Cl)cc1)c1ccc(Cl)cc1.Cl [NCL062]
2.25 µg/mL: M + R [4]
2 µg/mL: MIC (S. pneumoniae isolates [1]; D39) | MIC (S. pneumoniae isolates [1]; WCH43) | MIC (S. pneumoniae isolates [1]; WCH137) | MIC (S. pneumoniae isolates [1]; WCH211) | MIC (μg/ml) at 24 hours, MRSA 1 (MRSA; isolate MRSA 1, 24 hours, 1st and 2nd replicate rows) | MIC (μg/ml) at 24 hours, VRE 1 (VRE; isolate VRE 1, 24 hours, 1st and 2nd replicate rows)
1 µg/mL: MIC (μg/ml) at 24 hours, VRE 2 (VRE; isolate VRE 2, 24 hours, 1st and 2nd replicate rows)
4 to 64 µg/mL: MBC Range (S. pneumoniae isolates [2]; all S. pneumoniae isolates)
4 µg/mL: Relative MIC with media type for D39 (S. pneumoniae isolates [1]; D39, 4% LHB:CAMHB) | MIC (S. pneumoniae isolates [1]; P9) | MIC (S. pneumoniae isolates [1]; P21) | MIC of D39, stored pre-prepared micro-titer trays (S. pneumoniae isolates [1]; Storage condition 4° C.) | MIC of D39, stored pre-prepared micro-titer trays (S. pneumoniae isolates [1]; Storage condition −2° C.) | MIC (S. pneumoniae isolates [1]; WCH57) | MIC (S. pneumoniae isolates [1]; WCH86) | MIC (S. pneumoniae isolates [1]; WCH89) | MBC (S. pneumoniae isolates [2]; D39) | MBC (S. pneumoniae isolates [2]; P21) | MBC (S. pneumoniae isolates [2]; WCH43) | MBC (S. pneumoniae isolates [2]; WCH89) | MBC (S. pneumoniae isolates [2]; WCH137) | MBC (S. pneumoniae isolates [2]; WCH211) | constant bactericidal concentration (S. pneumoniae strain D39; between 24 and 48 h) | MIC (μg/ml) at 24 hours, MRSA 2 (MRSA; isolate MRSA 2, 24 hours, 1st and 2nd replicate rows)
3 µg/mL: MRSA (MRSA; bioassay ranking, MRSA)
>128 µg/mL: MIC (μg/ml) at 24 hours, E. coli (Escherichia coli) | MIC (μg/ml) at 24 hours, P. aeruginosa (Pseudomonas aeruginosa)
Transparent: Visual analysis of solubility ([3]; Diluent CAMHB) | Visual analysis of solubility ([3]; Media 4% LHB:CAMHB) | Visual analysis of solubility ([3]; Media 10% horse serum-supplemented broth)
2 to 32 µg/mL: MIC range (S. pneumoniae isolates [1]; all S. pneumoniae isolates)
Confluent: MIC (S. pneumoniae isolates [1]; isolate A66.1, Table 22, CAMHB diluent for NCL062) | MIC (S. pneumoniae isolates [1]; isolate D39, Table 22, CAMHB diluent for NCL062) | MIC (S. pneumoniae isolates [1]; isolate P21, Table 22, CAMHB diluent for NCL062) | MIC (S. pneumoniae isolates [1]; isolate WCH57, Table 22, CAMHB diluent for NCL062) | MIC (S. pneumoniae isolates [1]; [7]) | MIC (S. pneumoniae isolates [1]; isolate WU-2, Table 22, CAMHB diluent for NCL062)
1.5 µg/mL: VRE (VRE; bioassay ranking, VRE)
64 µg/mL: MBC (S. pneumoniae isolates [2]; WU2) | MBC (S. pneumoniae isolates [2]; [7])
Precipitate: Visual analysis of solubility ([3]; Diluent DMSO) | Visual analysis of solubility ([3]; Diluent PBS)
16 µg/mL: MIC (S. pneumoniae isolates [1]; EF3030) | MIC (S. pneumoniae isolates [1]; WCH158) | MIC (S. pneumoniae isolates [1]; WCH184) | MIC (S. pneumoniae isolates [1]; WU2) | MBC (S. pneumoniae isolates [2]; EF3030) | MBC (S. pneumoniae isolates [2]; P9) | MBC (S. pneumoniae isolates [2]; WCH158) | MBC (S. pneumoniae isolates [2]; WCH184) | MBC50 (S. pneumoniae isolates [2]; all S. pneumoniae isolates)
8 µg/mL: MIC (S. pneumoniae isolates [1]; A66.1) | MIC (S. pneumoniae isolates [1]; L82016) | MIC (S. pneumoniae isolates [1]; TIGR4) | MIC (S. pneumoniae isolates [1]; WCH77) | MIC (S. pneumoniae isolates [1]; WCH92) | MIC50 (S. pneumoniae isolates [1]; all S. pneumoniae isolates) | MBC (S. pneumoniae isolates [2]; TIGR4) | MBC (S. pneumoniae isolates [2]; WCH57) | MBC (S. pneumoniae isolates [2]; WCH77) | MBC (S. pneumoniae isolates [2]; WCH86) | MBC (S. pneumoniae isolates [2]; WCH92) | immediate MBC (S. pneumoniae strain D39; within the first 10 min of administration)
greatest activity: activity against MRSA among analogues (MRSA; MIC testing, two MRSA strains) | activity against VRE among analogues (VRE; MIC testing, two VRE strains)
32 µg/mL: Relative MIC with media type for D39 (S. pneumoniae isolates [1]; D39, 10% horse serum-supplemented broth) | MIC (S. pneumoniae isolates [1]; WCH16) | MIC (S. pneumoniae isolates [1]; WCH46) | MIC90 (S. pneumoniae isolates [1]; all S. pneumoniae isolates) | MBC (S. pneumoniae isolates [2]; A66.1) | MBC (S. pneumoniae isolates [2]; L82016) | MBC (S. pneumoniae isolates [2]; WCH16) | MBC (S. pneumoniae isolates [2]; WCH46) | MBC90 (S. pneumoniae isolates [2]; all S. pneumoniae isolates)

C/C=C/C/C=C/CCC(=O)[C@H]1O[C@H]1C(N)=O [cerulenin, Cerulenin, reference compound]
72%: inhibition of lipid synthesis [5]

Polymyxin B [reference compound]
approximately 0.34 μM: maximal ATP release [6]
